One assay concerns tau transgenic mice. The note with it: daily intranasal treatment over several months; cited from earlier work.
In a further assay the test system is STOP+/- mice. The following applies: daily nasal application; cited from earlier work.
Assay [1] deals with schizophrenia-related cognitive impairment. The note with it: 5 mg once daily and 15 mg twice daily vs placebo, 56 patients; cited from earlier work.
For another assay, the system named is anti-ADNP (NAP) antibody. The note with it: incubation of antibody with excess NAP peptide; cited from earlier work.
The next assay deals with cancer cell division. The note with it: unlike paclitaxel; cited from earlier work.
The subject of a further assay is amnestic MCI. The note with it: 15 mg twice daily, intranasal, vs placebo; cited from earlier work.
The subject of another assay is astrocytes or neurons. The following applies: cited from earlier work.
The test system of the next assay is phosphorylated tau. The following applies: 12-month-old mice, intranasal ~0.07 mg/kg/day for 3 months; cited from earlier work.
Assay [2] deals with primary neuronal cell cultures. The note with it: cited from earlier work.
A further assay has as its system ADNP+/- mice. The following applies: cited from earlier work.
Assay [3] has as its system Cortical neurons co-cultured with PEE astrocytes. The following applies: cited from earlier work.
The subject of assay [4] is cerebellar granule neurons. The following applies: cited from earlier work.
For assay [5], the system named is known cell surface receptors. Description: Screening NAP on receptor panels. It is filed as binding. The procedure: Fluorescent NAP was found inside cells, in the vicinity of microtubules when it was incubated with cells at 4° C. and at low pH (conditions that exclude receptor-mediated endocytocis) (I. Divinski et al. J Biol Chem 279, 28531-28538 (2004)). Furthermore, NAP activity is independent of its chirality (D. E. Brenneman et al. J Pharmacol Exp Ther 309, 1190-1197 (2004)) and NAP shares sequence similarities with protein sequences that have membrane permeability properties (I. Divinski et al. J Biol Chem 279, 28531-28538 (2004)).

The subject of assay [6] is gestational day 8.0 mouse embryos. The note with it: cited from earlier work.
For the next assay, the system named is P19 cells. Description: P19 cell neuro-differentiation, Q-PCR of differentiation markers. In kind it is cell-based, mouse. The note with it: eight days differentiation, 1 μM RA; FIG. 2. The procedure: Mouse Embryonic teratocarcinoma cells were obtained from the American Type Culture Collection (ATCC, Bethesda, Md.); an initial control batch was a kind gift of Dr. Roi Atlas and Professor Irith Ginzburg, the Weizmann Institute of Science, Rehovot, Israel. P19 cells were grown in minimal essential medium (alpha-MEM) containing 5% fetal calf serum, 100 U/ml penicillin and 0.1 mg/ml streptomycin (Biological Industries, Beit Haemek, Israel) in a 5% CO2 incubator at 37° C. […]
Samples with same amount of total RNA were used to synthesize single-strand cDNA with SuperScript […] RNase H Reverse Transcriptase (Invitrogen, Carlsbad, Calif., USA) and a random hexamers adaptor primer according to the manufacturer's instructions. […] ADNP and ADNP2 expression levels in Schizophrenia were determined using specific primers for human ADNP and ADNP2, and normalized to TATA box binding protein. […] RNA from non-differentiated and differentiated P19 cells was isolated and the expression of tubulin β3 and glial fibrillary acidic protein (GFAP) was determined to confirm neuronal differentiation. ADNP and ADNP2 expression levels in P19 cells were determined using specific primers for mouse ADNP and ADNP2. […] The efficiencies of all primers used were calculated as a precursory step using standard curves, according to the equation: E (efficiency)=10^(−1/slope)−1×100 and were near 100% for all primers. […]

In assay [7] the test system is ADNP. Briefly: Transgene shutoff by doxycycline in rTg(tau(P301L))4510 mice, western blots. In kind it is in vivo, mouse. The note with it: treated with doxycycline; untreated ratio is 3; FIG. 3D. (In general: A western blot detects proteins with antibodies after separation by electrophoresis.)
Method: Nuclear ADNP expression was assessed using mouse monoclonal antibody directed against ADNP (1:300 dilution; BD Bioscience) at 150 KD, actin was used as a control. […] C. […] Tau expression was measured in the cytoplasmic fraction; ADNP was measured in nuclear fractions. D. Western blots showing expression level of ADNP in transgenic and non-transgenic mice after doxycycline treatment.
Another assay relates to β-tubulin. The following applies: NAP affinity columns; cited from earlier work.
Assay [8] concerns ADNP. The following applies: 120 min 75% xenon and 25% oxygen vs 75% nitrogen and 25% oxygen; RT-PCR, western blot, immunohistochemistry; cited from earlier work.
The next assay concerns cell cultures. The note with it: cited from earlier work.

Take `CC[C@H](C)[C@H](NC(=O)[C@H](CO)NC(=O)[C@@H](NC(=O)[C@@H]1CCCN1C(=O)[C@H](C)NC(=O)[C@@H](N)CC(N)=O)C(C)C)C(=O)N1CCC[C@H]1C(=O)N[C@@H](CCC(N)=O)C(=O)O` [NAP, Asn-Ala-Pro-Val-Ser-Ile-Pro-Gln]: in the assay on tau transgenic mice, the short-term memory result is listed as “improving”; the “tau phosphorylation and "NFTs"” value is given as “reduced”. In the assay on STOP+/- mice, the object recognition result is reported as “significantly improved to STOP+/+ performance level”, the “open field locomotor activity” value is given as “significantly decreased” and the spatial memory result is “ameliorated”. Besides, in [1], the “UCSD Performance-based Skills Assessment (UPSA) test, secondary endpoint” value is recorded as “statistically significant positive treatment effect”; the “tests that measured visual learning and working memory” value is recorded as “Numerical positive treatment effects”; the verbal learning result is reported as “favoring placebo”. Moreover, the “reduction of fluorescence staining” value in the assay with anti-ADNP (NAP) antibody is above 80%. The cancer cell division result in the assay with cancer cell division is reported as “does not affect”. For the same molecule, in the assay with amnestic MCI, the “cognitive tests that primarily assessed attention and working memory function” value is reported as “general pattern of improvement”. Moreover, the “microtubule depolymerization by nocodazole” value in the assay with astrocytes or neurons (neurons) was “reversed”. For the same molecule, the “tubulin zinc sheet formation and cell death” value in the assay with astrocytes or neurons (treatment with zinc chloride) is “protected”. Besides, the “decrease in phosphorylated tau at Ser202/Thr205 and Thr231 residues” value in the assay with phosphorylated tau was 70%. In assay [2], the neurite outgrowth result is reported as “induced neurite outgrowth”. Besides, in the assay with ADNP+/- mice (0.5 μg/mouse/day), the cognitive deficits result was “partially ameliorated” and the tau hyperphosphorylation result is recorded as “reduced”. Also, the “amount of active GSK-3β” value with ADNP+/- mice (NAP treatment) is “reduced”. The “dendritic and axonal growth or branching, density of synaptic structures” value in [3] (SNAP-25 and synaptophysin staining) is “significantly increased”. Moreover, the CREB phosphorylation entry in assay [3] was “increase”. In assay [3] (time-dependent), the “activity of ERK and Akt” value is given as “significantly stimulated”. Also, in assay [4] (cerebellar granule neurons, via Fyn kinase and Cas phosphorylation), the axon outgrowth entry is listed as “potentiated axon outgrowth”. Also, in assay [5], the “binding to known cell surface receptors” value was “did not reveal any significant binding”. Also, in [6] (co-incubation with ethanol and NAP), the “percentage of embryos that had begun to close their neural folds” value is “significantly increased”. In addition, the “alcohol-induced serotonergic loss during brain development” value in [6] (in vivo, caudal raphe) is recorded as “protected”.

On to `CC1=C(/C=C/C(C)=C/C=C/C(C)=C/C(=O)O)C(C)(C)CCC1` [RA, all-trans retinoic acid], for which, in the assay with P19 cells, the “glial fibrillar acidic protein (GFAP) expression, Q-PCR” value is reported as “up-regulation” and the “tubulinβ3 expression, Q-PCR” value was “up-regulation”.

For the molecule `C[C@H]1c2cccc(O)c2C(=O)C2=C(O)[C@]3(O)C(=O)C(C(N)=O)=C(O)[C@@H](N(C)C)[C@@H]3[C@@H](O)[C@@H]21` [doxycycline], the “ADNP protein expression ratio between the Tg and non-Tg mice” value in the assay on ADNP [7] was 1.

For `CCO` [ethanol], the IC50 in assay [4] (by inhibiting NAP activation of Fyn kinase and Cas, read-out: IC(50), block of NAP-mediated axon outgrowth) is 17 mM.

Regarding `CC(=O)O[C@H]1C(=O)[C@@]2(C)[C@H]([C@H](OC(=O)c3ccccc3)[C@]3(O)C[C@H](OC(=O)[C@H](O)[C@@H](NC(=O)c4ccccc4)c4ccccc4)C(C)=C1C3(C)C)[C@]1(OC(C)=O)CO[C@@H]1C[C@@H]2O` [paclitaxel], the NAP-tubulin interaction result with β-tubulin is “reduced”.

As to `[Xe]` [xenon], the “ADNP expression in neonatal rat brain” value in the assay with ADNP [8] is “differentially expressed”.

B1: recombinant ADNP: recombinant activity-dependent neuroprotective protein (protein, UniProt Q9H2P0 1-1102, looked up)
Activity-dependent …: MFQLPVNNLGSLRKARKTVKKILSDIGLEYCKEHIEDFKQFEPNDFYLKNTTWEDVGLWDPSLTKNQDYRTKPFCCSACPFSSKFFSAYKSHFRNVHSEDFENRILLNCPYCTFNADKKTLETHIKIFHAPNASAPSSSLSTFKDKNKNDGLKPKQADSVEQAVYYCKKCTYRDPLYEIVRKHIYREHFQHVAAPYIAKAGEKSLNGAVPLGSNAREESSIHCKRCLFMPKSYEALVQHVIEDHERIGYQVTAMIGHTNVVVPRSKPLMLIAPKPQDKKSMGLPPRIGSLASGNVRSLPSQQMVNRLSIPKPNLNSTGVNMMSSVHLQQNNYGVKSVGQGYSVGQSMRLGLGGNAPVSIPQQSQSVKQLLPSGNGRSYGLGSEQRSQAPARYSLQSANASSLSSGQLKSPSLSQSQASRVLGQSSSKPAAAATGPPPGNTSSTQKWKICTICNELFPENVYSVHFEKEHKAEKVPAVANYIMKIHNFTSKCLYCNRYLPTDTLLNHMLIHGLSCPYCRSTFNDVEKMAAHMRMVHIDEEMGPKTDSTLSFDLTLQQGSHTNIHLLVTTYNLRDAPAESVAYHAQNNPPVPPKPQPKVQEKADIPVKSSPQAAVPYKKDVGKTLCPLCFSILKGPISDALAHHLRERHQVIQTVHPVEKKLTYKCIHCLGVYTSNMTASTITLHLVHCRGVGKTQNGQDKTNAPSRLNQSPSLAPVKRTYEQMEFPLLKKRKLDDDSDSPSFFEEKPEEPVVLALDPKGHEDDSYEARKSFLTKYFNKQPYPTRREIEKLAASLWLWKSDIASHFSNKRKKCVRDCEKYKPGVLLGFNMKELNKVKHEMDFDAEWLFENHDEKDSRVNASKTADKKLNLGKEDDSSSDSFENLEEESNESGSPFDPVFEVEPKISNDNPEEHVLKVIPEDASESEEKLDQKEDGSKYETIHLTEEPTKLMHNASDSEVDQDDVVEWKDGASPSESGPGSQQVSDFEDNTCEMKPGTWSDESSQSEDARSSKPAAKKKATMQGDREQLKWKNSSYGKVEGFWSKDQSQWKNASENDERLSNPQIEWQNSTIDSEDGEQFDNMTDGVAEPMHGSLAGVKLSSQQA
Regarding B1, the “protection against severe oxidative stress and Aβ toxicity” value with cell cultures is “potent protection”.

The values above are taken from US9518994B2, “Method for diagnosing and monitoring schizophrenia and tauopathies” (Ramot at Tel Aviv University, priority 2010, dated 2016).
